# Test results from patent publication US20050143453A1, “Selective preventing and therapeutic agents for progressive lesion after organic damage” (priority 2000, published 2005).
# Experiments:
# [1] = test system: induction of effector macrophage by contact of human PBMC with lipopolysaccharide; assay: SPFC production by LPS stimulation (Test Example 1); type: cell-based; details: 144 h; human PBMC with LPS 80 μg/ml, incubated 6 days; Table 1; read-out: SPFC Production Inhibiting Concentration by LPS Stimulation (μM: IC50)
# Protocol: A suppressive effect of the test compound to effector macrophage induction was investigated in vitro by an induction and production system of spontaneous plaque-forming cell (SPEC) mentioned in M. Ishibashi, S. Jiang, Y. Kokado, S. Takahara, T. Sonoda: Immunopharmacologic effects of immunosuppressive agents explored by a new effector generation assay. Transplant Proc., 21: 1854-1858, 1989.
# Heparin-added peripheral blood (40 ml) was collected from a healthy person and the same amount of EDTA-added physiological saline was added. PBMC were obtained by a specific gravity centrifugal method using Ficoll-Hypaque (manufactured by Pharmacia Fine Chemicals). Self-plasma was added thereto and allowed to stand at 37° C. for 10 minutes and platelets were removed by a low-speed centrifugal separation. RPMI 1640 liquid containing 15 μg/ml of gentamicin and 2 mM L-glutamine was used for washing the PBMC. Concentration of the PBMC was adjusted to 2×10^6 cells/ml using the same liquid.
# Each 200 μl of a solution containing 2×10^6 PBMC/ml prepared in the step 1 were added to each well of a micro test plate, lipopolysaccharide (hereinafter, abbreviated as LPS) was diluted with the RPMI 1640 liquid to make the final concentration 80 μg/ml and the said LPS solution was added to each well of the 200 μl-micro test plate. Further, each 50 μl of human serum of type AB were added so as to make the concentration 10% by weight. Two such micro test plates were prepared.
# After that, to the above two micro test plates was added a solution where the test compound was diluted with 1% by weight of DMSO so as to make the concentration of the test compound 1 μM. Similarly were prepared each two micro test plates where the final concentrations of the test compound were 0.1 μM, 0.01 μM and 0.001 μM.
# The culture liquid prepared as such was incubated for 6 days at 37° C. in 5% CO2.
# The effector macrophage induced after the incubation was all recovered using a rubber-policeman (spatula made of rubber). A Hanks solution containing 5 μg/ml of gentamicin was used for washing and, using the said solution, there was prepared a solution where the concentration of the induced effector macrophage was 2×10^6 per ml.
# With regard to autologous erythrocytes, those which were preserved at 4° C. in a phosphate physiological saline (hereinafter, abbreviated as PBS) to which 0.1% by weight of AB serum and autologous erythrocytes obtained from PBMC separation were used were used. The preserved autologous erythrocytes were washed for three times with a Hanks solution to which no serum was added and made into a solution of 4% by weight concentration using the said Hanks solution. Poly-L-lysine was added to a Terasaki plate and washed with PBS every 20 minutes at 37° C., the above-mentioned autologous erythrocyte solution was added thereto immediately, the mixture was allowed to stand at 37° C. for 30 minutes and the erythrocytes which were not adhered to the plate were removed to prepare a Terasaki plate to which self-erythrocytes in a monolayer were adhered.
# A Hanks solution (4 μl) was added to the said Terasaki plate, 4 μl of a solution containing the induced effector macrophage obtained in the step 3 were added thereto and the mixture was allowed to stand at 37° C. for 2 hours. After completion of the reaction, it was fixed by formalin. Numbers of the produced SPFC which were adhered or phagocytized were measured.
# A mean SPFC production number was calculated from the measured values of SPFC production when the concentration of the test compound was the same. SPFC production number per 1×10^6 of the induced effector macrophage was calculated and, from the recovered induced effector macrophage numbers, total SPFC production amount (S2) was calculated.
# As a control, no test compound was added and the same operation as above was carried out to calculate the total SPFC production amount (S1). […]
# [2] = test system: induction of effector macrophage by contact of human PBMC with mitomycin-treated human PBMC (allo-MLC); assay: SPFC production by allo-MLC stimulation (Test Example 2); type: cell-based; details: for IC50: 144 h, human PBMC with mitomycin-treated human PBMC, incubated 6 days, Table 1, read-out: SPFC Production Inhibiting Concentration by all-MLC Stimulation (μM: IC50); for functional group (selective suppression of SPFC production by allo-MLC or LPS stimulation): summary of Table 1
Structure (SMILES),IC50 [1],IC50 [2],functional group (selective suppression of SPFC production by allo-MLC or LPS stimulation) [2]
"O=C1OC(Oc2ccc(F)cc2)(C(=O)OCc2ccccc2)c2ccccc21 (stereo not drawn) [(7-5), Benzyl 1-(4-fluorophenoxy)-3-oxo-1,3-dihydroisobenzofuran-1-carboxylate]",> 1 µM,0.01 µM,group I
"O=C1CCC(Cc2ccccc2)(C(=O)OCc2ccccc2)O1 (stereo not drawn) [(5-4), Benzyl 2-benzyl-5-oxo-tetrahydrofuran-2-carboxylate]",1 µM,0.01 µM,group I
"O=C1CCC(Cc2ccc(F)cc2)(C(=O)O)O1 (stereo not drawn) [(5-2), 2-(4-fluorobenzyl)-5-oxo-tetrahydrofuran-2-carboxylic Acid]",0.01 µM,0.1 µM,group II
"O=C1OC(O)(C(=O)OCc2ccccc2)c2ccccc21 (stereo not drawn) [(7-1), Benzyl 1-hydroxy-3-oxo-1,3-dihydroisobenzofuran-1-carboxylate]",1 µM,0.1 µM,group I
O=C(O)C(=O)c1ccccc1C(=O)O [(7-7)],0.01 µM,> 1 µM,group II
"O=C1OC(F)(C(=O)OCc2ccccc2)c2ccccc21 (stereo not drawn) [(7-2), Benzyl 1-fluoro-3-oxo-1,3-dihydro-isobenzofuran-1-carboxylate]",0.1 µM,> 1 µM,group II
"O=C1CC[C@@](Oc2ccc(F)cc2)(C(=O)O)O1 [Compound (1), (−)-2-(4-fluorophenoxy)-5-oxotetrahydrofuran-2-carboxylic Acid]",> 1 µM,0.01 µM,group I
"N#CC1(C(=O)OCc2ccccc2)CCC(=O)O1 (stereo not drawn) [(6-3), Benzyl 2-cyano-5-oxotetrahydrofuran-2-carboxylate]",0.001 µM,0.1 µM,group II
"O=C1OC(Oc2ccc(F)cc2)(C(=O)O)c2ccccc21 (stereo not drawn) [(7-6), 1-(4-fluorophenoxy)-3-oxo-1,3-dihydro-isobenzofuran-1-carboxylic Acid]",0.01 µM,> 1 µM,group II
